According to publication PMC6384562, “Isolation of Two New Compounds and Other Constituents from Leaves of Piper crocatum and Study of Their Soluble Epoxide Hydrolase Activities” (Molecules, 2019):

Target: T1, soluble epoxide hydrolase (sEH) (Homo sapiens, UniProt P34913)
T1 construct: gene EPHX2
T1 sequence (P34913 1-555): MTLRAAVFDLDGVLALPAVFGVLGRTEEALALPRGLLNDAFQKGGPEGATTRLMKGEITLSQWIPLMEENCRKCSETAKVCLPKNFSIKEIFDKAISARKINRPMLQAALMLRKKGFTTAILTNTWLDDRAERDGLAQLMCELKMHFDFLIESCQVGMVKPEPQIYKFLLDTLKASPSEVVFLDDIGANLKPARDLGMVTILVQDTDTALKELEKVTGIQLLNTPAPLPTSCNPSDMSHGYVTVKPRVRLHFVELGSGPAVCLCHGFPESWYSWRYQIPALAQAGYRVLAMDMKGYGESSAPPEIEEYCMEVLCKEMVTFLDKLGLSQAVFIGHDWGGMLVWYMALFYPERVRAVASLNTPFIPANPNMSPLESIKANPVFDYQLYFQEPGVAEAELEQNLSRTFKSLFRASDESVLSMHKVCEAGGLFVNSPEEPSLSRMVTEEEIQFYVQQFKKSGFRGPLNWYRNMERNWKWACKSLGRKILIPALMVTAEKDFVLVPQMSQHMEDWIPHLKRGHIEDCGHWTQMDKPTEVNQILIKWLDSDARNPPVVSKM
Assay: fluorescence assay with recombinant human sEH and PHOME substrate
Assay type: biochemical

- IC50: 58.5 ± 0.5 µM
Compound: C=CCc1cc(OC)c(O[C@@H]2O[C@H](CO)[C@@H](O)[C@H](O)[C@H]2O)c(OC)c1 [compound 5, erigeside II]
